Our source for the GI50 values is patent US9624229B2, “Pyrimidine-2-amine compounds and their use as inhibitors of JAK kinases” (Rigel Pharmaceuticals, Inc., priority 2008, dated 2017).

The target in the assay is Ba/F3 V617F cells (Homo sapiens, UniProt O60674, V617F, cells depend on it). As to the kind of experiment: Proliferation assay (Cell Titer-Glo, 72 h) utilizing Ba/F3 V617F cells. The following applies: Ba/F3 V617F cells, proliferation, level of activity to inhibit JAK2, read-out: IC50 (the source's name). The class given is cell-based, mouse. In outline: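 Ba/F3 V617F cells in RPMI/10% FBS, 1×10^5 cells/mL, exposed in duplicate to 3-fold serial compound dilutions (top 5 mM DMSO stock, diluted 1:250, added as 2× solution in 5% FBS medium) for 72 h at 37 °C. Viability by Cell Titer-Glo luminescence; IC50 reported.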
Sequence of Ba/F3 V617F cells (O60674 whole entry V617F): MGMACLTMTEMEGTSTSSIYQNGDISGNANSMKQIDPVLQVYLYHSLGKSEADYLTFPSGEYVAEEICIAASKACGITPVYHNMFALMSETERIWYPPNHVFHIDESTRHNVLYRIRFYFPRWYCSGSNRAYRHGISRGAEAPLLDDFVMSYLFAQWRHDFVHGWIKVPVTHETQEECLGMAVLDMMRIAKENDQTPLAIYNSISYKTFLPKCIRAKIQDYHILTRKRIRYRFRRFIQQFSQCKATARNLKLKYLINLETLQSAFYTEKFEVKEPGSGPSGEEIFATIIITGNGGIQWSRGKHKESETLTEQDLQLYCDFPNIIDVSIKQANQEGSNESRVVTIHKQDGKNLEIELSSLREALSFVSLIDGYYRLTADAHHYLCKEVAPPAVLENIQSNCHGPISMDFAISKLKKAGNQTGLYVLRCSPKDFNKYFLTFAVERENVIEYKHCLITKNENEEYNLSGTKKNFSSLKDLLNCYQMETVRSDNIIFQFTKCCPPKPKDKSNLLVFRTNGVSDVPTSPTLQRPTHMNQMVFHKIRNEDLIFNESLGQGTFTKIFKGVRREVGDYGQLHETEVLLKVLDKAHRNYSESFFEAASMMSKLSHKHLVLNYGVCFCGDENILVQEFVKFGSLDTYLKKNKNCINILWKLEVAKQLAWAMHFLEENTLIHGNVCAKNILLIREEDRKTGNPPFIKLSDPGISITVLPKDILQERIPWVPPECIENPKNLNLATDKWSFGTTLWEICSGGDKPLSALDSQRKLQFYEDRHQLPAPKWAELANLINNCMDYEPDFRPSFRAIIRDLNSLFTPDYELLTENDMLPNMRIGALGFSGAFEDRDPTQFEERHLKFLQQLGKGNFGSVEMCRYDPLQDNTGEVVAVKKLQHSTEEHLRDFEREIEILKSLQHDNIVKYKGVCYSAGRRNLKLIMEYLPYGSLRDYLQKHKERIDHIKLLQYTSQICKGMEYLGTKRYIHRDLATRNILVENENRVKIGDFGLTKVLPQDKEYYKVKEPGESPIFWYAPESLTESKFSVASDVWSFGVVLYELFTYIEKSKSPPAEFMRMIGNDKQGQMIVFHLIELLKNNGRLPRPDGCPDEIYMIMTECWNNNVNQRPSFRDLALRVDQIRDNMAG
On the technique in general: Cellular ATP, detected with luciferase, serves as a proxy for viable cell number.
As for `Cc1cc(Nc2nccc(-c3ccc(Cc4ccccc4)nc3)n2)ccc1N1CC2(C)CN(C)CC(C)(C1)C2` [compound 90, 4-(6-(benzyl)pyridin-3-yl)-N-(3-methyl-4-(1,5,7-trimethyl-3,7-diazabicyclo[3.3.1]nonan-3-yl)phenyl)pyrimidin-2-amine], the GI50 was less than 1 µM. For `CN1CC2(C)CN(c3ccc(Nc4nccc(-c5ccc(Cc6ccccc6)nc5)n4)cc3F)CC(C)(C1)C2` [compound 91, 4-(6-(benzyl)pyridin-3-yl)-N-(3-fluoro-4-(1,5,7-trimethyl-3,7-diazabicyclo[3.3.1]nonan-3-yl)phenyl)pyrimidin-2-amine], the GI50 is less than 1 µM. Consider `CCCNc1ncc(-c2ccnc(Nc3ccc(N4C[C@@H]5C[C@H]4CN5C)c(C)c3)n2)cn1` [compound 92, 4-(2-(propyl)aminopyrimidin-5-yl)-N-(3-methyl-4-((1S,4S)-5-methyl-2,5-diazabicyclo[2.2.1]heptan-2-yl)phenyl)pyrimidin-2-amine], for which the GI50 is less than 1 µM. For the compound `CCCNc1ncc(-c2ccnc(Nc3ccc(N4C[C@@H]5C[C@H]4CN5C)c(F)c3)n2)cn1` [compound 93, 4-(2-(propyl)aminopyrimidin-5-yl)-N-(3-fluoro-4-((1S,4S)-5-methyl-2,5-diazabicyclo[2.2.1]heptan-2-yl)phenyl)pyrimidin-2-amine], the GI50 is less than 1 µM. Under `CN1C[C@@H]2C[C@H]1CN2c1ccc(Nc2nccc(-c3ccc(NC4CCCCC4)nc3)n2)cc1C(F)(F)F` [compound 94, 4-(6-(cyclohexylamino)pyridin-3-yl)-N-(3-trifluoromethyl-4-((1S,4S)-5-methyl-2,5-diazabicyclo[2.2.1]heptan-2-yl)phenyl)pyrimidin-2-amine] stands less than 1 µM; under `Cc1cc(Nc2nccc(-c3cncc(S(C)(=O)=O)c3)n2)ccc1N1C[C@@H]2C[C@H]1CN2C` [compound 95, 4-(5-(methyl)sulfonylpyridin-3-yl)-N-(3-methyl-4-((1S,4S)-5-methyl-2,5-diazabicyclo[2.2.1]heptan-2-yl)phenyl)pyrimidin-2-amine], less than 1 µM; under `CN(C)c1ccc(-c2ccnc(Nc3ccc(N4C[C@@H]5C[C@H]4CN5C)c(C(F)(F)F)c3)n2)cn1` [compound 96, 4-(6-(dimethylamino)pyridin-3-yl)-N-(3-trifluoromethyl-4-((1S,4S)-5-methyl-2,5-diazabicyclo[2.2.1]heptan-2-yl)phenyl)pyrimidin-2-amine], less than 1 µM. For the compound `CN1C[C@@H]2C[C@H]1CN2c1ccc(Nc2nccc(-c3ccc(N4CCOCC4)nc3)n2)cc1C(F)(F)F` [compound 97, 4-(6-(morpholin-4-yl)pyridin-3-yl)-N-(3-trifluoromethyl-4-((1S,4S)-5-methyl-2,5-diazabicyclo[2.2.1]heptan-2-yl)phenyl)pyrimidin-2-amine], the GI50 is less than 1 µM. As for `CN1C[C@@H]2C[C@H]1CN2c1ccc(Nc2nccc(-c3cnc4c(c3)OCCN4)n2)cc1C(F)(F)F` [compound 98, 4-(3,4-dihydro-2H-pyrido[3,2-b][1,4]oxazin-7-yl)-N-(3-trifluoromethyl-4-((1S,4S)-5-methyl-2,5-diazabicyclo[2.2.1]heptan-2-yl)phenyl)pyrimidin-2-amine], the GI50 is less than 1 µM. Then `Cc1cc(Nc2nccc(-c3ccc(NCCNS(=O)(=O)C4CC4)nc3)n2)ccc1N1C[C@@H]2C[C@H]1CN2C` [compound 99, 4-(6-((2-(cyclopropylsulfonyl)aminoethyl)-amino)pyridin-3-yl)-N-(3-methyl-4-((1S,4S)-5-methyl-2,5-diazabicyclo[2.2.1]heptan-2-yl)phenyl)pyrimidin-2-amine], with 1 to 10 µM; and `Cc1cc(Nc2nccc(-c3ccc(NCCNS(=O)(=O)C4CC4)nc3)n2)ccc1N1C[C@@H]2C[C@H]1CO2` [compound 100, 4-(6-((2-(cyclopropylsulfonyl)aminoethyl)-amino)pyridin-3-yl)-N-(3-methyl-4-((1S,4S)-5-oxa-2-azabicyclo[2.2.1]heptan-2-yl)phenyl)pyrimidin-2-amine], with less than 1 µM; and `CN1C[C@@H]2C[C@H]1CN2c1ccc(Nc2nccc(-c3cncc(S(C)(=O)=O)c3)n2)cc1F` [compound 101, 4-(5-(methyl)sulfonylpyridin-3-yl)-N-(3-fluoro-4-((1S,4S)-5-methyl-2,5-diazabicyclo[2.2.1]heptan-2-yl)phenyl)pyrimidin-2-amine], with less than 1 µM. As for `CN1C[C@@H]2C[C@H]1CN2c1ccc(Nc2nccc(-c3cncc(S(C)(=O)=O)c3)n2)cc1C(F)(F)F` [compound 102, 4-(5-(methyl)sulfonylpyridin-3-yl)-N-(3-trifluoromethyl-4-((1S,4S)-5-methyl-2,5-diazabicyclo[2.2.1]heptan-2-yl)phenyl)pyrimidin-2-amine], the GI50 is less than 1 µM.

Turning to `Cc1cc(Nc2nccc(-c3ccc4nccn4c3)n2)ccc1N1C[C@@H]2C[C@H]1CN2C` [compound 103, 4-(imidazo[1,2-a]pyridin-6-yl)-N-(3-methyl-4-((1S,4S)-5-methyl-2,5-diazabicyclo[2.2.1]heptan-2-yl)phenyl)pyrimidin-2-amine], the GI50 was less than 1 µM.

Regarding `Cc1cc(Nc2nccc(-c3ccc(-c4ncc(-c5ccc(N(C)C)cc5)o4)cc3)n2)ccc1N1C[C@@H]2C[C@H]1CN2C` [compound 104, 4-(4-(5-(4-dimethylaminophenyl)oxazol-2-yl)phenyl)-N-(3-methyl-4-((1S,4S)-5-methyl-2,5-diazabicyclo[2.2.1]heptan-2-yl)phenyl)pyrimidin-2-amine], the GI50 was 1 to 10 µM. For the compound `COc1ccc2cc(-c3ccnc(Nc4ccc(N5C[C@@H]6C[C@H]5CN6C)c(C)c4)n3)[nH]c2c1` [compound 105, 4-(6-methoxy-1H-indol-2-yl)-N-(3-methyl-4-((1S,4S)-5-methyl-2,5-diazabicyclo[2.2.1]heptan-2-yl)phenyl)pyrimidin-2-amine], the GI50 was less than 1 µM. For the compound `Cc1cc(Nc2nccc(-c3cnn(-c4cccc(Cl)c4)c3)n2)ccc1N1C[C@@H]2C[C@H]1CN2C` [compound 106, 4-(1-(3-chlorophenyl)-1H-pyrazol-4-yl)-N-(3-methyl-4-((1S,4S)-5-methyl-2,5-diazabicyclo[2.2.1]heptan-2-yl)phenyl)pyrimidin-2-amine], the GI50 was 1 to 10 µM. With `Cc1cc(Nc2nccc(-c3ccc4ncn(C)c4c3)n2)ccc1N1C[C@@H]2C[C@H]1CN2C` [compound 107, 4-(1-methylbenzimidazol-6-yl)-N-(3-methyl-4-((1S,4S)-5-methyl-2,5-diazabicyclo[2.2.1]heptan-2-yl)phenyl)pyrimidin-2-amine], the GI50 was less than 1 µM. Under `Cc1cc(Nc2nccc(-c3cc4cc(C#N)ccc4[nH]3)n2)ccc1N1C[C@@H]2C[C@H]1CN2C` [compound 108, 4-(5-cyano-1H-indol-2-yl)-N-(3-methyl-4-((1S,4S)-5-methyl-2,5-diazabicyclo[2.2.1]heptan-2-yl)phenyl)pyrimidin-2-amine] stands less than 1 µM. As to `Cc1cc(Nc2nccc(-c3cnn(-c4ccc(F)cc4)c3)n2)ccc1N1C[C@@H]2C[C@H]1CN2C` [compound 109, 4-(1-(4-fluorophenyl)-1H-pyrazol-4-yl)-N-(3-methyl-4-((1S,4S)-5-methyl-2,5-diazabicyclo[2.2.1]heptan-2-yl)phenyl)pyrimidin-2-amine], the GI50 was less than 1 µM.

With `Cc1cc(Nc2nccc(-c3ccc(N4CCOCC4)nc3)n2)ccc1N1C2CCC1CC2` [compound 110, 4-(6-(morpholin-4-yl)pyridin-3-yl)-N-(3-methyl-4-(7-azabicyclo[2.2.1]heptan-7-yl)phenyl)pyrimidin-2-amine], the GI50 was in the range of 1 to 10 µM. `Cc1cc(Nc2nccc(-c3ccc(C#N)nc3)n2)ccc1N1C[C@@H]2C[C@H]1CN2C` [compound 111, 4-(6-cyanopyridin-3-yl)-N-(3-methyl-4-((1S,4S)-5-methyl-2,5-diazabicyclo[2.2.1]heptan-2-yl)phenyl)pyrimidin-2-amine]: the GI50 fell in the range of 1 to 10 µM. Under `Cc1cc(Nc2nccc(-c3ccc(C#N)nc3)n2)ccc1N1C2CCC1CC2` [compound 112, 4-(6-cyanopyridin-3-yl)-N-(3-methyl-4-(7-azabicyclo[2.2.1]heptan-7-yl)phenyl)pyrimidin-2-amine] stands 1 to 10 µM; under `Cc1cc(Nc2nccc(-c3ccc4c(c3)CC(=O)N4)n2)ccc1N1C[C@@H]2C[C@H]1CN2C` [compound 113, 4-(2-oxoindolin-5-yl)-N-(3-methyl-4((1S,4S)-5-methyl-2,5-diazabicyclo[2.2.1]heptan-2-yl)phenyl)pyrimidin-2-amine], less than 1 µM.

For the compound `Cc1cc(Nc2nccc(-c3cncc(C#N)c3)n2)ccc1N1C[C@@H]2C[C@H]1CN2C` [compound 114, 4-(5-cyanopyridin-3-yl)-N-(3-methyl-4((1S,4S)-5-methyl-2,5-diazabicyclo[2.2.1]heptan-2-yl)phenyl)pyrimidin-2-amine], the GI50 lay in the range of 1 to 10 µM. Then `Cc1cc(Nc2nccc(-c3ccc(-c4nnn[nH]4)nc3)n2)ccc1N1C[C@@H]2C[C@H]1CN2C` [compound 115, 4-(6-(1H-tetrazol-5-yl)pyridin-3-yl)-N-(3-methyl-4((1S,4S)-5-methyl-2,5-diazabicyclo[2.2.1]heptan-2-yl)phenyl)pyrimidin-2-amine], with 10 to 20 µM; and `CC(=O)N1C[C@@H]2C[C@H]1CN2c1ccc(Nc2nccc(-c3ccc(N4CCOCC4)nc3)n2)cc1C#N` [compound 116, 4-(6-(morpholin-4-yl)pyridin-3-yl)-N-(3-cyano-4-((1S,4S)-5-acetyl-2,5-diazabicyclo[2.2.1]heptan-2-yl)phenyl)pyrimidin-2-amine], with less than 1 µM; and `CS(=O)(=O)N1C[C@@H]2C[C@H]1CN2c1ccc(Nc2nccc(-c3ccc(N4CCOCC4)nc3)n2)cc1C#N` [compound 117, 4-(6-(morpholin-4-yl)pyridin-3-yl)-N-(3-cyano-4-((1S,4S)-5-methylsulfonyl-2,5-diazabicyclo[2.2.1]heptan-2-yl)phenyl)pyrimidin-2-amine], with less than 1 µM.
